The record followed here is US20240424115A1, “LONG-ACTING INTERLEUKIN-15 RECEPTOR AGONISTS AND RELATED IMMUNOTHERAPEUTIC COMPOSITIONS AND METHODS” (Nektar Therapeutics, priority 2017, published 2024).

Data set [1] deals with CD4, CD8, and NK cells. The experiment in a line: In vivo IL-15 signaling (STAT5 phosphorylation in lymphocytes) in non-human primates. Also noted: species or system cynomolgus monkeys. The conditions noted are these: NHP. As to the method:
In the study, cynomolgus monkeys (cyno), one female and one male, were each intravenously administered a single dose of Conjugate 2 (0.5 mg/kg). A series of blood samples were taken from each animal both prior to treatment (day-6 and-1) and at multiple intervals following treatment for assessment by flow cytometry of STAT5 phosphorylation in various types of lymphocytes (CD4, CD8, and NK cells). Results are provided in FIGS. 9A (CD4), 9B (CD8), and 9C (NK).
(§1) Cynomolgus monkeys (n=3-4 males), were administered a single intravenous injection of Conjugate 1 at 0.003, 0.01, 0.1 mg/kg or a vehicle control. Blood samples were collected at the indicated time points pre and post dose (−5, −2, 1, 2, 3, 4, 5, 6, 7, 10, 14, 17 days) and subjected to flow cytometric analysis to examine pharmacodynamic effects within lymphocyte populations. Proliferation (% Ki-67) and JAK/STAT signaling (% pSTAT5) for NK cells, CD8 T cells, and CD4 T cells were examined, with the results shown in FIGS. 45A-C and FIGS. 46A-C, respectively.

In data set [2] the test system is NK cells, CD8 T cells, CD4 T cells. As to the kind of experiment: In vivo PD study in non-human primates: lymphocyte cell numbers and proliferation. Also noted: species or system cynomolgus monkeys. The method, then:
In the study, cynomolgus monkeys, one female and one male, were administered 500 μg/kg of Conjugate 2 intravenously. A series of blood samples were taken from each animal before treatment (day-6 and -1) and at multiple intervals following single dose treatment for assessment by flow cytometry of lymphocyte cell numbers (NK cells, CD8 T-cells, etc.) and activation.
NK cell counts were determined to assess the ability of exemplary Conjugate 2 to induce sustained NK cell proliferation in non-human primates; results are shown in FIGS. 16A and 16B. NK cells and their proliferation in blood from cynomolgus monkey were identified by flow cytometry. Acquisition and analysis of NK cells (CD45+ CD3− CD16+) and their proliferation status (CD45+CD3−CD16+ Ki67+) were conducted using BD FACS DIVA software. Absolute values for NK cells and proliferating NK cells were used to calculate % Ki67 positivity within the NK population. Pre and post-treatment values were plotted using Prism.
CD8 T cell counts were also determined as illustrated in FIG. 17 for each animal from pre-dose to 14 days post-administration. Specifically, CD8 T cells were defined as CD45+CD3+CD4−CD8+. Blood from the monkeys was also subject to immunophenotyping as previously described. In monkey, CD8 T cells increased in a sustained manner, an effect lasting for at least 10 days. This plot further exemplifies the ability of an exemplary long acting IL-15 receptor agonist, Conjugate 2, to induce proliferation and sustained increases in numbers of CD8 T-cells post-administration.
In monkey, CD8 TEM cells were defined as CD45+CD3+CD4−CD8+CD45Ra−CD197− and CD8 Tcm were defined as CD45+CD3+CD4−CD8+CD45Ra−CD197+. Immunophenotyping was conducted by flow cytometry with sample acquisition on DIVA software and data analysis on Flowjo software. Graphs were plotted using Prism. […] The figures indicate that both CD8 effector and central memory T cell populations proliferate in response to exemplary Conjugate 2.
In this study, cynomolgus monkeys (cyno), one female and one male, were each intravenously administered a single dose of Conjugate 1 (0.1 mg/kg). A series of blood samples were taken from each animal over a 14-day time course and subjected to flow cytometry analysis of various lymphocytes (CD8 T cells, Ki-67 percent positivity within total CD8, CD8 central memory T cells (TCM) and CD8 effector memory T cells (Tem), NK cells and Ki-67 percent positivity of NK cells).
as §1
In cynomolgus monkey, CD8 naïve and memory subpopulations were defined by CD45Ra, CD197 and CD95. […] Within the CD8 Tem, […] and Tscm populations, Conjugate 1 induced robust % Ki-67 expression in a dose dependent manner with detectable increases in proliferation marker positivity starting as early as day 2, reaching a maximum at day 5 and returning to baseline between days 10-14. The Ki-67 expression and kinetics within the CD8 populations support the sustained increase in CD8 T cell numbers shown in Example 27 and FIGS. 47A-D.

Data set [3] in a line: PK (MRT) of long-acting IL-15 receptor agonists (Table 2B). It counts as in vivo. Conditions: species not stated.
The mark [4] stands for this setting: cynomolgus monkey, each dose level, vs vehicle.

With mono-mPEG-SBA40K-IL-15 [Conjugate 1], the “pSTAT5 in CD8 T cells” value in data set [1] (0.1 and 0.01 mg/kg) is “dose-dependent increase in pSTAT5”. In addition, the “dose level at which increase in % pSTAT5 in NK cells can be detected” value in data set [1] (single i.v.) is 0.001 mg/kg. Further, the “time NK cell numbers were sustained” value in data set [2] (NHP, 0.1 and 0.01 mg/kg) is “up to 14 days”. Besides, the “CD4 T cell numbers, % Ki-67 and % pSTAT5” value in data set [2] (NHP, highest dose level 0.1 mg/kg) is “induced a small increase in CD4 T cell numbers, % Ki-67 and % pSTAT5”. Also, in data set [2] (NHP, single i.v.), the “day of maximal total CD8 T cell numbers” value was around 5 days, the “dose at which % Ki-67 positivity in CD8 T cells is detectable” value came out at 10 µg/kg, the “dose at which effect on total CD8 cell numbers can be detected” value amounted to 3 µg/kg and the “dose level at which a significant increase in % Ki-67 in NK cells can be detected” value worked out at 1 µg/kg. For the same substance, in data set [2] (NHP, single i.v.), the “first detectable increase in % Ki-67 in CD8 Tem, Tcm and Tscm” value is 2 days; the “lowest dose level yielding a significant increase in NK cells” value worked out at 10 µg/kg; the “maximum of % Ki-67 in CD8 Tem, Tcm and Tscm” value was found to be 5 days; the “return of % Ki-67 in CD8 Tem, Tcm and Tscm to baseline” value is 10 to 14 days. Besides, in data set [2] (NHP, single i.v.), the “time Ki-67 expression in NK cells can be sustained” value is “up to 14 days”, the “time increase in total CD8 T cells is sustained” value is given as “over seven” and the “time of maximum NK cell numbers after dosing” value is reported as “five”. Further, in data set [2] (cyno, single i.v. 0.1 mg/kg), the “increase in CD8 T cell numbers” value is 7-10 X, the “increase in CD8 Tcm numbers” value is on record as 27-30 X, the “increase in CD8 Tem numbers” value was 21-33 X and the “increase in NK cells” value is given as 9-10 X. Moreover, in data set [2] (setting [4]), the “time increase in CD8 T cell numbers was sustained” value is “at least 10 days” and the “time increase in NK cell numbers was sustained” value is listed as “at least 14 days”. Also, the “PK (MRT)” value in data set [3] is on record as 21 h.
